The target of experiment [1] is T1, Adrenergic α1D (Homo sapiens, UniProt P25100).
T1 construct: Eurofins Panlabs, Inc. (contract assay)
The experiment can be described thus: Radioligand binding, Adrenergic α1D.

In experiment [2] the target is T2, Transporter, Dopamine (DAT) (Homo sapiens, UniProt Q01959).
T2 construct: Eurofins Panlabs
The experiment can be described thus: Radioligand binding, Transporter, Dopamine (DAT).

For experiment [3], the target named is T3, Dopamine D1 (Homo sapiens, UniProt P21728).
T3 construct: Eurofins Panlabs, Inc. (contract assay)
The experiment can be described thus: Radioligand binding, Dopamine D1.

The target of experiment [4] is T4, Estrogen ERα (Homo sapiens, UniProt P03372).
T4 construct: Eurofins Panlabs, Inc. (contract assay)
T4 sequence (P03372 whole entry): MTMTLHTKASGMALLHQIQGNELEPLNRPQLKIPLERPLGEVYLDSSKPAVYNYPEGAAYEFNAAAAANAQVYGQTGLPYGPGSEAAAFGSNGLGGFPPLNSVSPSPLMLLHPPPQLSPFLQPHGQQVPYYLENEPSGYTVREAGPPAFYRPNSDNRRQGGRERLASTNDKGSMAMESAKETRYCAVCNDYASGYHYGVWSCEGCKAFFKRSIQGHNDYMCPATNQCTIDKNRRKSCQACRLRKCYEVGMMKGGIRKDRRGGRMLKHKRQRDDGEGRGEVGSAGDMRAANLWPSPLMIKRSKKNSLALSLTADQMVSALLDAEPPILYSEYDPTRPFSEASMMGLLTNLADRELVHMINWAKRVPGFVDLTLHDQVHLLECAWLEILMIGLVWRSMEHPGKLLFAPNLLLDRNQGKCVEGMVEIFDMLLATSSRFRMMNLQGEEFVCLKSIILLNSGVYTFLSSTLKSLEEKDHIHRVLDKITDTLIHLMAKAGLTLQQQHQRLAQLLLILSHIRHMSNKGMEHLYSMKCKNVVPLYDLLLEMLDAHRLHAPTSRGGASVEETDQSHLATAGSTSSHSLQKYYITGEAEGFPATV
Kind of experiment: Radioligand binding, Estrogen ERα.

For experiment [5], the target named is T5, Dopamine D3 (Homo sapiens, UniProt P35462).
T5 construct: Eurofins Panlabs, Inc. (contract assay)
The experiment can be described thus: Radioligand binding, Dopamine D3.

Experiment [6] has as its target T6, Adenosine A3 (Homo sapiens, UniProt P0DMS8).
T6 construct: Eurofins Panlabs, Inc. (contract assay) 200720 (assay number)
Kind of experiment: Radioligand binding, Adenosine A3.

The target of experiment [7] is T7, Histamine H3 (Homo sapiens, UniProt Q9Y5N1).
T7 construct: Eurofins Panlabs, Inc
T7 sequence (Q9Y5N1 whole entry): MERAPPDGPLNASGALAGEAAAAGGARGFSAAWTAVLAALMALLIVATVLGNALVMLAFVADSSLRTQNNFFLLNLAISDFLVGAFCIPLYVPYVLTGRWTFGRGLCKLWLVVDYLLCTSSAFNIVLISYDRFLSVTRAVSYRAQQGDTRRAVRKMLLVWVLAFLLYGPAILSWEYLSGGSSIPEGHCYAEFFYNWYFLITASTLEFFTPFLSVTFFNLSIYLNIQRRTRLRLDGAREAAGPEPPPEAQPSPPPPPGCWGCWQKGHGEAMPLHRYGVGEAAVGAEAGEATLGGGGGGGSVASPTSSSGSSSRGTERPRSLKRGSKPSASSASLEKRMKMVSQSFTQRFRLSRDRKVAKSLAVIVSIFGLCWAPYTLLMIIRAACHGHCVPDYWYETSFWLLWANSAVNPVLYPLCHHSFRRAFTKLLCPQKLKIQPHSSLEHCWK
The experiment can be described thus: Radioligand binding, Histamine H3.

For experiment [8], the target named is T8, Opiate κ (OP2, KOP) (Homo sapiens, UniProt P41145).
T8 construct: Eurofins Panlabs, Inc
T8 sequence (P41145 whole entry): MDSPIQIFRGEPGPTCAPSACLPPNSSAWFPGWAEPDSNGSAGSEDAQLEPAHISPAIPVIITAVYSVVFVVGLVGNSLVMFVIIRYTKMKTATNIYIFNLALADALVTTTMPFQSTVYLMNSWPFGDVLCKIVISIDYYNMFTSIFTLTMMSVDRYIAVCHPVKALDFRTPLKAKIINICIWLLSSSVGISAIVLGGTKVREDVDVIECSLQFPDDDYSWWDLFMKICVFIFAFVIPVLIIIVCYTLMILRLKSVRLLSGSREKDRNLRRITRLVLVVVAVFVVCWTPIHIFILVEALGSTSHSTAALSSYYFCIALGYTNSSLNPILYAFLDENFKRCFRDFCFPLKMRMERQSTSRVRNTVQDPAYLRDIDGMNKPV
The experiment can be described thus: Radioligand binding, Opiate κ (OP2, KOP).

In experiment [9] the target is T9, Neuropeptide Y Y1 (Homo sapiens, UniProt P25929).
T9 construct: Eurofins Panlabs, Inc
T9 sequence (P25929 whole entry): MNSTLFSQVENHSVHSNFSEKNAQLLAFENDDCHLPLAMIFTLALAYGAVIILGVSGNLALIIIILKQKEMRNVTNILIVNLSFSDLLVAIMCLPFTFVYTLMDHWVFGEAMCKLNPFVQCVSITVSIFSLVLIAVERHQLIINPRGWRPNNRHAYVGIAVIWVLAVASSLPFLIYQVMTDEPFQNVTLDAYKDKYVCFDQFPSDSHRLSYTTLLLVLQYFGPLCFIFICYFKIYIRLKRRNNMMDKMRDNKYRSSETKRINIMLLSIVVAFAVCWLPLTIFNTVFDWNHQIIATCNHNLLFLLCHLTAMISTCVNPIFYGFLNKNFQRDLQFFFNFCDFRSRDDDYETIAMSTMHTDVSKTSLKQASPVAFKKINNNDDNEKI
Kind of experiment: Radioligand binding, Neuropeptide Y Y1.

Experiment [10] concerns the target T10, Adrenergic α1A (Rattus norvegicus, UniProt P43140).
T10 construct: Eurofins Panlabs, Inc. (contract assay) 203100 (assay number)
The experiment can be described thus: Radioligand binding, Adrenergic α1A.

In experiment [11] the target is T11, Neuropeptide Y Y2 (Homo sapiens, UniProt P49146).
T11 construct: Eurofins Panlabs, Inc
The experiment can be described thus: Radioligand binding, Neuropeptide Y Y2.

The target in experiment [12] is T12, Serotonin (5-Hydroxytryptamine) 5-HT3 (Homo sapiens, UniProt P46098).
T12 construct: Eurofins Panlabs
T12 sequence (P46098 24-478): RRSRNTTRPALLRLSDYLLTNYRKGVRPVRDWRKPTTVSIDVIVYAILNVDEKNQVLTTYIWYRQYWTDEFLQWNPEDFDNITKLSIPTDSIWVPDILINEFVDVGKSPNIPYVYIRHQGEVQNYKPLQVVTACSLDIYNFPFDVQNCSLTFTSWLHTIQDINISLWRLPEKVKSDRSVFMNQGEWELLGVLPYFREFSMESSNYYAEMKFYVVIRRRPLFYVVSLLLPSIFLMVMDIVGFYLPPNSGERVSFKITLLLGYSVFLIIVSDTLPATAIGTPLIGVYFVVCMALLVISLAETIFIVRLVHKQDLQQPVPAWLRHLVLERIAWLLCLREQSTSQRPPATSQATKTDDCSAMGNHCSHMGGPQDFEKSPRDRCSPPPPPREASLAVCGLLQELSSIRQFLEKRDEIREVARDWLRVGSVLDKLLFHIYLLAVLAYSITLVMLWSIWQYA
Kind of experiment: Radioligand binding, Serotonin (5-Hydroxytryptamine) 5-HT3.

Experiment [13] concerns the target T13, Androgen (Testosterone) AR (Rattus norvegicus, UniProt P15207).
T13 construct: Eurofins Panlabs, Inc. (contract assay)
Kind of experiment: Radioligand binding, Androgen (Testosterone) AR.

Experiment [14] concerns the target T14, Adrenergic α2A (Homo sapiens, UniProt P08913).
T14 construct: Eurofins Panlabs, Inc. (contract assay)
Kind of experiment: Radioligand binding, Adrenergic α2A.

The target in experiment [15] is T15, Platelet Activating Factor (PAF) (Homo sapiens, UniProt P25105).
T15 construct: Eurofins Panlabs
T15 sequence (P25105 whole entry): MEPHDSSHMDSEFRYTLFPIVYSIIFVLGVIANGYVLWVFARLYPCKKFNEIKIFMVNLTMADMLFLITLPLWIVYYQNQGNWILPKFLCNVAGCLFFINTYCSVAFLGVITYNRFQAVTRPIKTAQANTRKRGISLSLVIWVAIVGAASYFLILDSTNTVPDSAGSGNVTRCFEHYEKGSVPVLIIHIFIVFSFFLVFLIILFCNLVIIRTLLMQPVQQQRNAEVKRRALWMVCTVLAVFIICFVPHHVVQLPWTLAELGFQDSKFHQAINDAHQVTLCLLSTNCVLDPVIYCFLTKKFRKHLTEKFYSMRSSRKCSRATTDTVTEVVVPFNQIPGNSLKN
The experiment can be described thus: Radioligand binding, Platelet Activating Factor (PAF).

Experiment [16] concerns the target T16, Cannabinoid CB1 (Homo sapiens, UniProt P21554).
T16 construct: Eurofins Panlabs, Inc. (contract assay)
Kind of experiment: Radioligand binding, Cannabinoid CB1.

In experiment [17] the test system is TRPM1. Kind of experiment: qPCR assay for TRPM1 expression in SK-MEL-5 cells. The note with it: Homo sapiens; SK-MEL-5 melanoma cells, up to 35 μM; read-out: TRPM-1 qPCR assay EC50. Type of experiment: cell-based. A general note: Quantitative PCR measures a nucleic acid by following its amplification.
The subject of experiment [18] is DCT. Kind of experiment: qPCR assay for DCT expression in SK-MEL-5 cells. The class given is cell-based. The following applies: Homo sapiens; SK-MEL-5 melanoma cells, up to 35 μM.
Experiment [19] relates to MITF. Kind of experiment: qPCR assay for MITF expression in SK-MEL-5 cells. The class given is cell-based. The note with it: Homo sapiens; SK-MEL-5 melanoma cells, up to 35 μM. The protocol: SK-MEL-5 cells were treated with compounds for 24 hours. Next, cells were lysed with DNase I (Ambion, from Cell to CT Lysis Mix). Lysed cells were delivered to a RT-PCR plate (Ambion, Cells to CT RT Mix) and the plates were then processed for reverse transcription to create cDNA. qPCR was performed by transferring cDNA from the RT-PCR plate to a qPCR plate containing PCR master mix (Roche, Probes Master), FAM Taqman probe/primer set for the target gene (human MITF, Applied Biosystem, 4331182 Hs01117294_m1), VIC Taqman probe/primer set for a house keeping gene (human GAPDH, Applied Biosystems C10228) and water. qPCR plates were cycled using a real-time PCR instrument (Roche, Light Cycler). Using the instrument software, a cycle call was generated when each well enters log phase amplification (Ct). The delta Ct value was determined by subtracting the Ct value of the control gene (GAPDH) from the Ct value of the target gene (MITF) in each well. The delta delta Ct value of each compound treatment was determined by averaging the delta Ct values of the mock well on each plate and subtracting that average from the delta Ct value of each compound well. […]
• 10. […] The RT assay plates are incubated at 37° C. for 1 hour and the reverse transcriptase is inactivated by incubating the plates for 1 minute at 95° C. • 13. cDNA is stored at −80° C. until ready for qPCR analysis […]

Each structure is given as a SMILES string.

What is called inhibition is the drop in the measured response relative to a control, in per cent. Usually EC50 stands for the concentration at which the effect is half-maximal.

T14 sequence (P08913 whole entry): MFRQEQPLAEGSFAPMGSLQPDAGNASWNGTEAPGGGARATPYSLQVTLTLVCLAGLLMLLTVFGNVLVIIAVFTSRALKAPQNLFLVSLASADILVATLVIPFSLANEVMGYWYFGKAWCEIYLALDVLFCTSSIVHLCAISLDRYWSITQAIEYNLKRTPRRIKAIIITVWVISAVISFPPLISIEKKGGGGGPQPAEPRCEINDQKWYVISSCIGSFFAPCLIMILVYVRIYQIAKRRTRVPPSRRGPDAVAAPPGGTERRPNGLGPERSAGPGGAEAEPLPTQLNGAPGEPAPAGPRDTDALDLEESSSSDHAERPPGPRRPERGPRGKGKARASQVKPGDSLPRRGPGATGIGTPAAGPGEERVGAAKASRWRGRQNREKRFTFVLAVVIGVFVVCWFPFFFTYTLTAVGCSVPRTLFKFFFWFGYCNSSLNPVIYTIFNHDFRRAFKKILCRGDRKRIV
T1 sequence (P25100 whole entry): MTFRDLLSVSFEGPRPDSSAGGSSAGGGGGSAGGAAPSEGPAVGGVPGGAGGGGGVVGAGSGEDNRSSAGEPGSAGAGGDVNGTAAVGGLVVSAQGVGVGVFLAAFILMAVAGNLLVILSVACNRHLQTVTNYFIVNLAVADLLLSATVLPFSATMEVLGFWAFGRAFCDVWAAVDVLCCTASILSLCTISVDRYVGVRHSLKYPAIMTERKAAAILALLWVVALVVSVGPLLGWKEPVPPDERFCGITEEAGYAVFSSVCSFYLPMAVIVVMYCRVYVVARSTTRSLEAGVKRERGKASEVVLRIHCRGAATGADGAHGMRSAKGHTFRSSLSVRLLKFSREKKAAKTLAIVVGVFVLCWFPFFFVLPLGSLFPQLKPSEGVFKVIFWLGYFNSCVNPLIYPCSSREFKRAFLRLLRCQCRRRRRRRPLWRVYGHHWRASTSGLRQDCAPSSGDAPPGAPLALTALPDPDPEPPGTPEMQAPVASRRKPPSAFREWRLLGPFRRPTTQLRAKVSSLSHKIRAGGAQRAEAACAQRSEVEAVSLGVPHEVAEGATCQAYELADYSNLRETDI
T16 sequence (P21554 whole entry): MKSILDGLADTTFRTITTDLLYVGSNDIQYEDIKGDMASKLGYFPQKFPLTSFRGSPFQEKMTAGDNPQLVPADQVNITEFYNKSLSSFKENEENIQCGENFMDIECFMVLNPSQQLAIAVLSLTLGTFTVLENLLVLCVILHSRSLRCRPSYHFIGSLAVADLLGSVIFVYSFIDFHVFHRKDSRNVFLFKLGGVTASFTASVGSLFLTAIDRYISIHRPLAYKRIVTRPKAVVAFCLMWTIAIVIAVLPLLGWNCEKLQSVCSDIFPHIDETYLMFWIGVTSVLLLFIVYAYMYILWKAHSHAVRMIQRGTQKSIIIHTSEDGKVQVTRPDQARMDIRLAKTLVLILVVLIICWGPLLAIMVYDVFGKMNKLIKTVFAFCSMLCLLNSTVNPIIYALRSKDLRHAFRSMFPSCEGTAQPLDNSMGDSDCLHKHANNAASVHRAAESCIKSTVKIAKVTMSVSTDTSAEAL
T6 sequence (P0DMS8 whole entry): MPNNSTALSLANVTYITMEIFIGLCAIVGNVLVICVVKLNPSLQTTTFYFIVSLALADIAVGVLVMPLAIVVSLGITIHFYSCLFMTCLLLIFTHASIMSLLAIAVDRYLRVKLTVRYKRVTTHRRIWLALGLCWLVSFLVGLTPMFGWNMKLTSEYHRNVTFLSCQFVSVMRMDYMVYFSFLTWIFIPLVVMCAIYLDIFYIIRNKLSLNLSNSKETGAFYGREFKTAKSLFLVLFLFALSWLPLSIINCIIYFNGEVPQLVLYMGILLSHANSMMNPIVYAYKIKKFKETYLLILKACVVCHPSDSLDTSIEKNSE
T10 sequence (P43140 whole entry): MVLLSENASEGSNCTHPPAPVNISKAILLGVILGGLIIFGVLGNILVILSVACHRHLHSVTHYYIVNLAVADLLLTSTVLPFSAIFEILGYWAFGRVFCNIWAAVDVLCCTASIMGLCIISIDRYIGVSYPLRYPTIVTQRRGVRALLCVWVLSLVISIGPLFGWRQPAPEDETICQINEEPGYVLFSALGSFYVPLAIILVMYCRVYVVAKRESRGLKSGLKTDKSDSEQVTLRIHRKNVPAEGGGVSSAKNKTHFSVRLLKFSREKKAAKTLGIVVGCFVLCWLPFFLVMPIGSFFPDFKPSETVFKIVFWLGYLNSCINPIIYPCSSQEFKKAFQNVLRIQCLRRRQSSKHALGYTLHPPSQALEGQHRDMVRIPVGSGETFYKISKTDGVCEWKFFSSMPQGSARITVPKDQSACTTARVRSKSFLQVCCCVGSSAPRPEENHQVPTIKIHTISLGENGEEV

With `NS(=O)(=O)c1ccc(NC2=CC(=O)c3ccccc3C2=O)cc1` [Example 1, 4-((1,4-Dioxo-1,4-dihydronaphthalen-2-yl)amino)benzenesulfonamide], the inhibition at 10 µM is 21% in [1]; 2% in experiment [2]; 21% in experiment [3]; 5% in experiment [4]; 9% in experiment [5]; 15% in experiment [6]. The inhibition at 10 µM in [7] is -5%; in experiment [8] it was 19%; in experiment [9], -6%; in [10] it was 28%; in [11], 5%; in experiment [12] it was 5%. Further, the inhibition at 10 µM came to 14% in experiment [13], 33% in [14], 3% in experiment [15] and 31% in experiment [16].

In the case of `NS(=O)(=O)c1ccc(NC2=CC(=O)c3ccccc3C2=O)cc1` [4-((1,4-dioxo-1,4-dihydronaphthalen-2-yl)amino)benzenesulfonamide], the EC50 came to 160 nM in [17], 100 nM in experiment [18] and 160 nM in experiment [19].

Source of the values: US9745261B2, “Inhibitors of the MITF molecular pathway” (THE GENERAL HOSPITAL CORPORATION, priority 2013, dated 2017).
